# Measurements from article doi:10.1101/2025.03.03.641193, “Trihydroxybenzaldoximes are redox cycling inhibitors of ThDP-dependent DXP synthase” (bioRxiv, 2025).
# Read-outs that look alike come from different tables or passages of the source.
# Legend:
# [1] = target: T1, R478A DXPS (Escherichia coli, UniProt P77488, R478A); conditions: EcR478A vs WT; cited from earlier work
# T1 construct: made in house
# [2] = target: T2, EcDXPS (Escherichia coli, UniProt P77488); conditions: cited from earlier work; for inhibitory activity against DXPS: source not stated at the place, probably ref 32
# T2 construct: made in house
# [3] = target: T2, EcDXPS; assay: DXPS-IspC coupled assay, aerobic, WT EcDXPS; format: biochemical, E. coli; conditions: for MOI varying D-GAP / MOI varying pyruvate: WT EcDXPS, aerobic
# Description: Inhibitory activity of compounds against DXPS were monitored via a continuous spectrophotometric coupled assay with DXPS and IspC as previously described.[41],[42] Briefly, Reaction mixtures containing HEPES (100 mM, pH 8.0), MgCl2 (2 mM), NaCl (5 mM), ThDP (1 mM), BSA (1 mg/mL), DXPS (125–500 nM), IspC (1.7 μM), NADPH (160 μM), DMSO (5%, v/v), and inhibitor (0–200 μM) were preincubated at 25 °C (or chamber temperature 25–30 °C) for 5 min. Enzymatic reactions were initiated via the addition of 20 μL of a 10x substrate mix for a final well volume of 200 μL. Reactions were performed in triplicate unless otherwise noted. See the following sections for details and modifications.
# When varying pyruvate (0–500 μM), GAP was maintained at 50 μM (3 mM for R478A). When varying GAP (0–500 μM), pyruvate was maintained at 500 μM. The following [DXPS] were used when varying 1: WT EcDXPS, R478A, H431A, D427A (200 nM), R99A (500 nM), WT DrDXPS, WT PaDXPS (150 nM). […] Reactions were incubated and initiated as described above. Immediately following initiation, NADPH depletion was monitored at 340 nm at 25 °C for 7–10 min with a 14–20 second time interval. Initial velocities of DXP formation were determined from the linear portion of the NADPH decay. […] Initial velocities were plotted vs. substrate concentration, and the data were fit to equation 1 (mixed model), 2 (competitive), or 3 (uncompetitive) based on the calculated α value and goodness of fit in GraphPad Prism. Reported standard errors of the mean for Kis are calculated from three replicates.
# [4] = target: T3, DXPS (Escherichia coli, UniProt P77488); assay: NMR detection of chemical reduction by DXPS and substrates (LR 1H-15N HSQC); format: biochemical; conditions: 500 μM
# T3 construct: made in house
# Description: In order to determine if 1 is reduced by the C2-α-carbanion on DXPS, we prepared the ^15N-labeled analog 8 aerobically in Tris pH 8 (to bias the oxidized form, Fig S7) and then transferred this mixture to the anaerobic chamber to minimize O2-mediated re-oxidation of 8 following reduction by the C2-α-carbanion (Fig S18). […] Reactions containing 8 (500 μM) were then initiated by the addition of DXPS (1 μM) and ^13C-labeled pyruvate (2 mM), in the presence or absence of 500 μM GAP (Fig 8B–E, S22–23). Samples were then quenched by boiling and vortexing before being transferred into degassed NMR tubes and sealed with rubber septa and parafilm to preclude reoxygenation. […] Further evidence supporting Model 2 in which 1 induces LThDP decarboxylation and promotes substrate wasting, was obtained by detection of products using 1D ^1H-NMR which selectively detects H{^13C} and H3{^13C} spectra via a proton multiplicity filter (Fig 8, S23–24). […] Production of DXP relative to acetate in the presence of D-GAP was reduced in the presence of 8 (Fig S24), consistent with a mechanism in which 1 competes with GAP as an acceptor and in agreement with the previously characterized competitive mechanism of inhibition with respect to D-GAP.[32]
# Reaction buffer (50 mM Tris pH 8, 2 mM MgCl2, 100 mM NaCl, 1 mM ThDP, 10% D2O) was prepared aerobically. Oxime 8 (500 μM) was added, and the mixture was incubated at 4 °C for 30 min. Reaction mixtures were then brought into the anaerobic chamber and allowed to deoxygenate ~2 hrs. Reactions were initiated by addition of 1 μM DXPS with 2 mM sodium pyruvate-^13C3 or 2 mM sodium pyruvate-^13C3 and 500 μM GAP. Reaction mixtures were incubated at 25 °C for 1 hr. Reactions were quenched by boiling for 5 min at 95 °C followed by vortexing for 15 seconds. The quenched mixtures were transferred to labeled NMR tubes which were sealed with rubber septa and parafilm prior to removal from the chamber to exclude oxygen once removed from the chamber. 2D Multiple Bond Long Range (LR) ^1H-^15N-HSQC and 1D ^1H detected H{^13C} and H3{^13C} spectra via a proton multiplicity filter which selects for ^13C nuclei attached to an odd number of protons were acquired on a Bruker Avance NEO 600 MHz spectrometer equipped with a TCI cryogenic probe equipped with z-gradients with a cryo-cooled ^13C preamplifier, resulting in high sensitivity for ^13C detection. Spectra were acquired at 600 MHz (^1H), 150 MHz (^13C), and 61 MHz (^15N) at 25 °C. Parameters for various categories of spectra are as follows: (LR ^1H-^15N HSQC): 16 scans and 150 ms acquisition time (t2) per FID and a ^1H spectral width of 15.1376 ppm; since the chemical shifts of N^R (δ 335) and N^O (δ 374) are separated by ~ 40 ppm, data collection times were optimized by positioning the ^15N carrier at 354 ppm and using an ^15N spectral width of 25 ppm and an acquisition time of 13 ms along ^15N (t1); with a 1.5 s relaxation delay between successive scans, the total data collection period per 2D spectrum was 20 minutes. ^1H detected H{^13C} and H3{^13C} filtered 1D spectra: 200 ms acquisition time/FID, and a 5s relaxation day between successive scans, 1.5 minutes per spectrum. Controls were also prepared in which reactions were initiated by addition of 1 μM DXPS with no substrates, as well as 2 mM ^13C-labeled pyruvate + 500 μM GAP with DXPS dialysis buffer in place of enzyme. A “mixed” redox state control of 1 (500 μM) was prepared aerobically in 50 mM HEPES pH 8 with 10% D2O.
smiles,measurement,setting,value
"CC(=O)P(=O)(O)OCCc1cn([C@H](Cc2ccccc2)C(=O)O)nn1 [D-PheTrAP, D-phenylalanine triazol acetyl phosphonate]",fold loss in potency on EcR478A,[1],> 30 fold
CO/N=C/c1cc(O)c(O)cc1O [compound 2],MOI varying pyruvate,[2]; footnote a,Noncompetitive
same,Ki,[2]; vary pyruvate,15.6 ± 0.7 µM
"N/N=C/c1cc(O)c(O)cc1O [compound 3, (E,Z)-5-(hydrazineylidenemethyl)benzene-1,2,4-triol]",Ki,[3],17.5 ± 0.6 µM
same,MOI varying D-GAP,[3],competitive
same,MOI varying pyruvate,[3],uncompetitive
CN/N=C/c1cc(O)c(O)cc1O [compound 4],potency against DXPS,[2]; determined in the presence of ascorbate,lacking measurable potency
same,MOI varying D-GAP,[3],mixed
same,MOI varying pyruvate,[3],uncompetitive
CO/N=C/c1ccc(O)c(O)c1 [compound 5],inhibitory activity against DXPS,[2],lack of potency
CO/N=C/c1cc(O)ccc1O [compound 6],inhibitory activity against DXPS,[2],lack of potency
"O/[15N]=C/c1cc(O)c(O)cc1O [compound 8, ^15N-labeled (E)-2,4,5-Trihydroxybenzaldehyde oxime]",redox state after incubation (LR 1H-15N HSQC),"[4]; DXPS 1 μM + pyruvate 2 mM + D-GAP 500 μM, anaerobic",readily reduced
same,redox state after incubation (LR 1H-15N HSQC),"[4]; DXPS 1 μM + pyruvate 2 mM, no GAP, anaerobic",fully reduced
same,redox state after incubation (LR 1H-15N HSQC),"[4]; DXPS 1 μM, no substrates",maintained mostly in the oxidized form
same,redox state after incubation (LR 1H-15N HSQC),[4]; ascorbate 5 mM control,Total reduction
same,redox state after incubation (LR 1H-15N HSQC),"[4]; pyruvate 2 mM + D-GAP 500 μM, no DXPS",Some reduction
